Reference: PubChem BioAssay (NCI)
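Step 1: Grow cells in 96-well plates. Step 2: Expose to compound for 48 hours at 5 concentrations. Step 3: Interpolate endpoints linearly; if unreached, use highest concentration. TGI: concentration producing complete growth inhibition.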

Assays:
Experiment in all cases: NCI tumour cell line growth inhibition, 48 h
786-0 renal = system: 786-0 renal
A498 renal = system: A498 renal
A549 NSCLC = system: A549 NSCLC
ACHN renal = system: ACHN renal
CAKI-1 renal = system: CAKI-1 renal
CCRF-CEM leukemia = system: CCRF-CEM leukemia
COLO 205 colon = system: COLO 205 colon
DLD-1 colon = system: DLD-1 colon
DMS 114 small cell lung = system: DMS 114 small cell lung
DMS 273 small cell lung = system: DMS 273 small cell lung
EKVX NSCLC = system: EKVX NSCLC
HCC-2998 colon = system: HCC-2998 colon
HCT-116 colon = system: HCT-116 colon
HCT-15 colon = system: HCT-15 colon
HOP-18 NSCLC = system: HOP-18 NSCLC
HOP-62 NSCLC = system: HOP-62 NSCLC
HOP-92 NSCLC = system: HOP-92 NSCLC
HT29 colon = system: HT29 colon
IGROV1 ovarian = system: IGROV1 ovarian
K-562 leukemia = system: K-562 leukemia
KM12 colon = system: KM12 colon
KM20L2 colon = system: KM20L2 colon
LOX IMVI melanoma = system: LOX IMVI melanoma
LXFL 529 NSCLC = system: LXFL 529 NSCLC
M14 melanoma = system: M14 melanoma
M19-MEL melanoma = system: M19-MEL melanoma
MALME-3M melanoma = system: MALME-3M melanoma
MOLT-4 leukemia = system: MOLT-4 leukemia
NCI-H23 lung = system: NCI-H23 lung
NCI-H460 lung = system: NCI-H460 lung
NCI-H522 lung = system: NCI-H522 lung
OVCAR-3 ovarian = system: OVCAR-3 ovarian
OVCAR-4 ovarian = system: OVCAR-4 ovarian
OVCAR-5 ovarian = system: OVCAR-5 ovarian
OVCAR-8 ovarian = system: OVCAR-8 ovarian
RPMI-8226 leukemia = system: RPMI-8226 leukemia
RXF 393 renal = system: RXF 393 renal
RXF-631 renal = system: RXF-631 renal
SF-268 CNS = system: SF-268 CNS
SF-539 CNS = system: SF-539 CNS
SK-MEL-2 melanoma = system: SK-MEL-2 melanoma
SK-MEL-28 melanoma = system: SK-MEL-28 melanoma
SK-MEL-5 melanoma = system: SK-MEL-5 melanoma
SK-OV-3 ovarian = system: SK-OV-3 ovarian
SN12C renal = system: SN12C renal
SNB-19 CNS = system: SNB-19 CNS
SNB-75 CNS = system: SNB-75 CNS
SNB-78 CNS = system: SNB-78 CNS
SW-620 colon = system: SW-620 colon
TK-10 renal = system: TK-10 renal
U251 CNS = system: U251 CNS
UACC-257 melanoma = system: UACC-257 melanoma
UACC-62 melanoma = system: UACC-62 melanoma
UO-31 renal = system: UO-31 renal
XF 498 CNS = system: XF 498 CNS
NCI-H226 lung = system: NCI-H226 lung
SF-295 CNS = system: SF-295 CNS

O=C(N/C(=C\c1c(O)ccc2ccccc12)c1nc2ccccc2[nH]1)c1ccccc1
TGI (786-0 renal): > 100 µM
TGI (A498 renal): > 100 µM
TGI (A549 NSCLC): > 100 µM
TGI (ACHN renal): > 100 µM
TGI (CAKI-1 renal): > 100 µM
TGI (CCRF-CEM leukemia): > 100 µM
TGI (COLO 205 colon): > 100 µM
TGI (DLD-1 colon): > 100 µM
TGI (DMS 114 small cell lung): > 100 µM
TGI (DMS 273 small cell lung): > 100 µM
TGI (EKVX NSCLC): > 100 µM
TGI (HCC-2998 colon): > 100 µM
TGI (HCT-116 colon): > 100 µM
TGI (HCT-15 colon): > 100 µM
TGI (HOP-18 NSCLC): > 100 µM
TGI (HOP-62 NSCLC): 76.1 µM
TGI (HOP-92 NSCLC): > 100 µM
TGI (HT29 colon): > 100 µM
TGI (IGROV1 ovarian): > 100 µM
TGI (K-562 leukemia): > 100 µM
TGI (KM12 colon): > 100 µM
TGI (KM20L2 colon): > 100 µM
TGI (LOX IMVI melanoma): > 100 µM
TGI (LXFL 529 NSCLC): > 100 µM
TGI (M14 melanoma): > 100 µM
TGI (M19-MEL melanoma): > 100 µM
TGI (MALME-3M melanoma): > 100 µM
TGI (MOLT-4 leukemia): > 100 µM
TGI (NCI-H23 lung): > 100 µM
TGI (NCI-H460 lung): > 100 µM
TGI (NCI-H522 lung): > 100 µM
TGI (OVCAR-3 ovarian): > 100 µM
TGI (OVCAR-4 ovarian): > 100 µM
TGI (OVCAR-5 ovarian): > 100 µM
TGI (OVCAR-8 ovarian): > 100 µM
TGI (RPMI-8226 leukemia): > 100 µM
TGI (RXF 393 renal): 47.7 µM
TGI (RXF-631 renal): > 100 µM
TGI (SF-268 CNS): > 100 µM
TGI (SF-539 CNS): > 100 µM
TGI (SK-MEL-2 melanoma): > 100 µM
TGI (SK-MEL-28 melanoma): > 100 µM
TGI (SK-MEL-5 melanoma): > 100 µM
TGI (SK-OV-3 ovarian): > 100 µM
TGI (SN12C renal): > 100 µM
TGI (SNB-19 CNS): > 100 µM
TGI (SNB-75 CNS): 45.6 µM
TGI (SNB-78 CNS): > 100 µM
TGI (SW-620 colon): > 100 µM
TGI (TK-10 renal): > 100 µM
TGI (U251 CNS): > 100 µM
TGI (UACC-257 melanoma): > 100 µM
TGI (UACC-62 melanoma): > 100 µM
TGI (UO-31 renal): > 100 µM
TGI (XF 498 CNS): > 100 µM

COc1cc2c(c(O)c1C)C(=O)CC(c1ccccc1)O2 (stereo unspecified)
TGI (786-0 renal): > 100 µM
TGI (A498 renal): > 100 µM
TGI (A549 NSCLC): > 100 µM
TGI (ACHN renal): > 100 µM
TGI (CAKI-1 renal): > 100 µM
TGI (CCRF-CEM leukemia): > 10 µM
TGI (DLD-1 colon): > 100 µM
TGI (DMS 114 small cell lung): > 100 µM
TGI (EKVX NSCLC): > 100 µM
TGI (HCC-2998 colon): > 100 µM
TGI (HCT-116 colon): > 100 µM
TGI (HCT-15 colon): > 100 µM
TGI (HOP-18 NSCLC): > 100 µM
TGI (HOP-62 NSCLC): > 100 µM
TGI (HOP-92 NSCLC): 40.8 µM
TGI (HT29 colon): > 10 µM
TGI (IGROV1 ovarian): > 100 µM
TGI (K-562 leukemia): > 100 µM
TGI (KM12 colon): > 100 µM
TGI (KM20L2 colon): 82.3 µM
TGI (LOX IMVI melanoma): > 10 µM
TGI (LXFL 529 NSCLC): > 100 µM
TGI (M14 melanoma): > 10 µM
TGI (M19-MEL melanoma): > 100 µM
TGI (MALME-3M melanoma): > 100 µM
TGI (MOLT-4 leukemia): > 100 µM
TGI (NCI-H226 lung): 41.5 µM
TGI (NCI-H23 lung): > 100 µM
TGI (NCI-H460 lung): > 10 µM
TGI (NCI-H522 lung): > 100 µM
TGI (OVCAR-3 ovarian): > 100 µM
TGI (OVCAR-4 ovarian): > 10 µM
TGI (OVCAR-5 ovarian): > 100 µM
TGI (OVCAR-8 ovarian): > 100 µM
TGI (RXF-631 renal): > 100 µM
TGI (SF-268 CNS): > 100 µM
TGI (SF-295 CNS): > 10 µM
TGI (SF-539 CNS): > 100 µM
TGI (SK-MEL-2 melanoma): 95.4 µM
TGI (SK-MEL-28 melanoma): > 100 µM
TGI (SK-MEL-5 melanoma): 37.2 µM
TGI (SK-OV-3 ovarian): > 100 µM
TGI (SN12C renal): > 100 µM
TGI (SNB-75 CNS): > 100 µM
TGI (SNB-78 CNS): > 100 µM
TGI (SW-620 colon): > 10 µM
TGI (TK-10 renal): 77.3 µM
TGI (U251 CNS): > 100 µM
TGI (UACC-257 melanoma): > 100 µM
TGI (UACC-62 melanoma): > 100 µM
TGI (UO-31 renal): > 100 µM
